Assay results from patent US4605744A, “Imidazole derivatives” (Hoffmann-La Roche Inc., priority 1985, dated 1986).
Where a name gives a salt, the structure may show the parent alone.

Assays:
Assay in all cases: In vitro antibacterial activity (MIC)
Assay type in all cases: cell-based
C. freundii 8ASM = settings: Citrobacter freundii, 8ASM, C. freundii 8ASM; read-out: MIC
Description: (§1) Drug dilutions are prepared in Mueller-Hinton broth ranging from 128 to 0.008 μg/ml. The diluted agents are dispensed in 100 μl amounts into the wells of a 96-well tray and used immediately or frozen at -10° to -70° C. until needed. Using an automated inoculator, 1.5 μl of a 10^-2 dilution of an overnight culture is added to each well of the tray. The tops of the trays are then sealed using transparent tape and incubated overnight at 37° C. The trays are examined with the aid of a viewer. The lowest concentration at which no growth is observed is considered to be the minimum inhibitory concentration (MIC).

E. aerogenes 503-478 = settings: Klebsiella aerogenes, 503478, E. aerogenes 503-478; read-out: MIC
Description: as §1

E. aerogenes 83 = settings: Klebsiella aerogenes, 83
Description: as §1

E. aerogenes 8 = settings: Klebsiella aerogenes, 8, E. aerogenes 8
Description: as §1

E. cloacae 214 = settings: Enterobacter cloacae, 214, E. cloacae 214; read-out: MIC
Description: as §1

E. cloacae 5699 = settings: Enterobacter cloacae, 5699, E. cloacae 5699; read-out: MIC
Description: as §1

E. cloacae 6951 = settings: Enterobacter cloacae, 6951, E. cloacae 6951; read-out: MIC
Description: as §1

E. cloacae 9295 = settings: Enterobacter cloacae, 9295, E. cloacae 9295; read-out: MIC
Description: as §1

E. cloacae 9570A = settings: Enterobacter cloacae, read-out: MIC
Description: as §1

E. cloacae P99 = settings: Enterobacter cloacae, P99, E. cloacae P99
Description: as §1

E. coli 387-1 = settings: Escherichia coli, 3871, E. coli 387-1; read-out: MIC
Description: as §1

E. coli 48 = settings: Escherichia coli, 48, E. coli 48; read-out: MIC
Description: as §1

E. coli 4 = settings: Escherichia coli, 4
Description: as §1

E. coli 503-455 = settings: Escherichia coli, 503455, E. coli 503-455; read-out: MIC
Description: as §1

E. coli 5152 = settings: Escherichia coli, 5152, E. coli 5152; read-out: MIC
Description: as §1

E. coli R-563 = settings: Escherichia coli, R563
Description: as §1

K. pneumoniae 35 = settings: Klebsiella pneumoniae; K. pneumoniae 35; read-out: MIC
Description: as §1

K. pneumoniae 4964 = settings: Klebsiella pneumoniae, 4964, K. pneumoniae 4964; read-out: MIC
Description: as §1

K. pneumoniae 503-964 = settings: Klebsiella pneumoniae, 503964; K. pneumoniae 503-964; read-out: MIC
Description: as §1

K. pneumoniae 503-994 = settings: Klebsiella pneumoniae, 503994, K. pneumoniae 503-994; read-out: MIC
Description: as §1

K. pneumoniae 5096 = settings: Klebsiella pneumoniae, 5096, K. pneumoniae 5096
Description: as §1

K. pneumoniae 8357 = settings: Klebsiella pneumoniae, 8357, K. pneumoniae 8357; read-out: MIC
Description: as §1

K. pneumoniae A = settings: Klebsiella pneumoniae, K. pneumoniae A; read-out: MIC
Description: as §1

K. pneumoniae HE7 = settings: Klebsiella pneumoniae; K. pneumoniae HE7; read-out: MIC
Description: as §1

P. aeruginosa 503-820 = settings: Pseudomonas aeruginosa, 503820; P. aeruginosa 503-820; read-out: MIC
Description: as §1

P. mirabilis 190 = settings: Proteus mirabilis, 190, P. mirabilis 190; read-out: MIC
Description: as §1

P. mirabilis 2 = settings: Proteus mirabilis, 2, P. mirabilis 2; read-out: MIC
Description: as §1

P. rettgeri ATCC 9250 = settings: Providencia rettgeri, ATCC9250, P. rettgeri ATCC 9250; read-out: MIC
Description: as §1

P. vulgaris ATCC 6380 = settings: Proteus vulgaris, ATCC6380, P. vulgaris ATCC 6380; read-out: MIC
Description: as §1

S. marcescens 5805 = settings: Serratia marcescens, 5805, S. marcescens 5805; read-out: MIC
Description: as §1

S. marcescens S2 = settings: Serratia marcescens; S. marcescens S2; read-out: MIC
Description: as §1

S. marcescens S3 = settings: Serratia marcescens; S. marcescens S3; read-out: MIC
Description: as §1

S. marcescens S4 = settings: Serratia marcescens, S4, S. marcescens S4; read-out: MIC
Description: as §1

S. marcescens SM = settings: Serratia marcescens, read-out: MIC
Description: as §1

S. schottmuelleri = settings: read-out: MIC
Description: as §1

S. typhi P58A = settings: Salmonella enterica, TYPHI
Description: as §1

SMILES: CC1(C)S[C@@H]2[C@H](N=CN3CCC(CCCn4ccnc4CO)CC3)C(=O)N2[C@H]1C(=O)O [R, [2S-(2alpha,5alpha,6beta)]-6-[[[4-[3-[2-(hydroxymethyl)-1H-imidazol-1-yl]propyl-1-piperidinyl]methylene]amino]-3,3-dimethyl-7-oxo-4-thia-1-azabicyclo[3.2.0]heptane-2-carboxylic acid hydrochloride 1.1 molar hydrate]
- MIC (C. freundii 8ASM): < 0.008 µg/mL
- MIC (E. aerogenes 503-478): 0.5 µg/mL
- MIC (E. aerogenes 83): 1 µg/mL
- MIC (E. aerogenes 8): 32 µg/mL
- MIC (E. cloacae 214): 0.5 µg/mL
- MIC (E. cloacae 5699): 0.062 µg/mL
- MIC (E. cloacae 6951): 8 µg/mL
- MIC (E. cloacae 9295): 0.125 µg/mL
- MIC (E. cloacae 9570A): 0.062 µg/mL
- MIC (E. cloacae P99): 0.062 µg/mL
- MIC (E. coli 387-1): 2 µg/mL
- MIC (E. coli 48): 0.016 µg/mL
- MIC (E. coli 4): 2 µg/mL
- MIC (E. coli 503-455): 0.5 µg/mL
- MIC (E. coli 5152): 4 µg/mL
- MIC (E. coli R-563): 4 µg/mL
- MIC (K. pneumoniae 35): 0.062 µg/mL
- MIC (K. pneumoniae 4964): 0.5 µg/mL
- MIC (K. pneumoniae 503-964): 0.016 µg/mL
- MIC (K. pneumoniae 503-994): 0.016 µg/mL
- MIC (K. pneumoniae 5096): 8 µg/mL
- MIC (K. pneumoniae 8357): 0.062 µg/mL
- MIC (K. pneumoniae A): < 0.008 µg/mL
- MIC (K. pneumoniae HE7): > 128 µg/mL
- MIC (P. aeruginosa 503-820): 128 µg/mL
- MIC (P. mirabilis 190): 0.062 µg/mL
- MIC (P. mirabilis 2): 0.25 µg/mL
- MIC (P. rettgeri ATCC 9250): 0.062 µg/mL
- MIC (P. vulgaris ATCC 6380): < 0.008 µg/mL
- MIC (S. marcescens 5805): 1 µg/mL
- MIC (S. marcescens S2): 0.125 µg/mL
- MIC (S. marcescens S3): 0.125 µg/mL
- MIC (S. marcescens S4): 0.5 µg/mL
- MIC (S. marcescens SM): 0.062 µg/mL
- MIC (S. schottmuelleri): < 0.008 µg/mL
- MIC (S. typhi P58A): 0.062 µg/mL
